Drawing on US20240246941A1, “SUBSTITUTED 4-(3-AMINOPROP-1-YL)AMINOQUINOLINE ANALOGS AS MODULATORS OF MELANOMA-ASSOCIATED ANTIGEN 11 UBIQUITIN LIGASE” (ST. JUDE CHILDREN'S RESEARCH HOSPITAL, INC., priority 2020, published 2024), this text covers IC50 for 74 compounds.

In general, IC50 refers to the concentration that inhibits the measured activity by half.

The structures appear in SMILES notation.

Chain of interaction between GST-MAGEA11 MHD and FAM-PCF11_4 peptide (MAGE-A11:PCF11) (P43364 218-429): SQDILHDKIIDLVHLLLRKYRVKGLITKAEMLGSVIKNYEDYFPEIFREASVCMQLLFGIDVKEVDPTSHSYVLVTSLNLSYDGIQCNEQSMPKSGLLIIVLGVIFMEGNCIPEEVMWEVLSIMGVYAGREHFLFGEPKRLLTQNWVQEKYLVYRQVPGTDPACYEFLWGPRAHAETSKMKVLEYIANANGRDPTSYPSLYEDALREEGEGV

For one assay, the target named is interaction between GST-MAGEA11 MHD and FAM-PCF11_4 peptide (MAGE-A11:PCF11) (Homo sapiens (Human), UniProt P43364). Put plainly: TR-FRET dose response competition assay for disruption of MAGE-A11:PCF11 binding. The following applies: Dose response TR-FRET screening of nine scaffold groups against MAGE-A11:PCF11; read-out: consensus IC50. Summed up:
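Competition TR-FRET at room temperature in 50 mM Tris pH 7.5, 20 mM MgCl2, 0.1 mg/ml BSA, 1 mM DTT: final 5 nM GST-MAGEA11 MHD, 5 nM Tb-anti-GST, 200 nM FAM-PCF11_4, 90 min. Ratio 520/490 nm converted to % inhibition; IC50 from sigmoidal fit.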
Background: In TR-FRET formats the signal depends on donor and acceptor labels being close together.
On to `CCCOc1ccc(-c2nc3c(c(=O)[nH]c(=O)n3Cc3ccccc3)n2CCO)cc1OCC` [SJ000381474-1], for which the IC50 came out at 69.9 µM.

Consider `Cc1ccc(Nc2nc(N)c3ccccc3n2)cc1Cl` [SJ000201287-1], for which the IC50 turned out to be 69.9 µM.

In the case of `Cc1cc(C)nc(Nc2nc(N)c3ccccc3n2)n1` [SJ000189299-1], the IC50 worked out at 69.9 µM. In the case of `CCCCn1c(-c2ccc(OCCC)c(OCC)c2)nc2c1c(=O)[nH]c(=O)n2CCC` [SJ000378906-1], the IC50 was determined as 69.9 µM. The same measure, in the same setting: under `Cc1cc(C)c(C2Nc3ccccc3C(=O)N2CCCN2CCOCC2)cc1C` (stereo not shown) [SJ000803761-1] stands 62.3 µM. Regarding `O=S(=O)(c1ccc(Cl)cc1)c1nc(-c2ccc(Cl)cc2)oc1N1CCOCC1` [SJ000230692-1], the IC50 turned out to be 69.9 µM. The same measure, in the same setting: the value for `CCCSc1nc2cc(-c3ccccc3)sc2c(=O)n1CCN1CCOCC1` [SJ000453419-1] was 69.9 µM; that for `CCC(C)c1ccc(C2=C(c3ccc([N+](=O)[O-])cc3)C(=O)OC2)cc1` (stereo not shown) [SJ000368165-1] was 69.9 µM; that for `CC(=O)N(C1=C(Cl)C(=O)c2ccccc2C1=O)c1ccc(C(=O)O)cc1` [SJ000024935-1] was 69.9 µM. Still for that read-out and setting: under `CNC1=C(Cl)C(=O)c2ccccc2C1=O` [SJ000141461-1] stands 69.9 µM; under `Oc1ccccc1CNCCCNc1ccnc2cc(Cl)ccc12` [SJ000311187-1], 69.9 µM. On the same count and under the same terms, the value for `COc1ccc(C2Nc3ccccc3C(=O)N2Cc2ccccc2)cc1Cn1cc([N+](=O)[O-])cn1` (stereo not shown) [SJ000288433-1] was 69.9 µM; that for `COc1ccc(CNC(=O)Cn2cnc3cc(-c4ccc(Cl)cc4)sc3c2=O)cc1` [SJ000457620-1] was 69.9 µM; that for `COc1ccc(-c2ccc3c(NCCCNCc4cccc(OC)c4O)ccnc3c2)cc1` [SJ000311295-1] was 69.9 µM. As for `O=C1C(Cl)=C(Nc2ccc(Cl)cc2)C(=O)c2ccccc21` [SJ000297073-1], the IC50 was determined as 69.9 µM.

For the compound `Fc1ccc(CNCCCNc2ccnc3cc(Cl)ccc23)cc1` [SJ000523062-1], the IC50 came to 69.9 µM. Same read-out and setting: under `CCCn1c(=O)c2nc(-c3ccccc3)[nH]c2n(CCC)c1=O` [SJ000832251-1] stands 73 µM; under `Nc1nc(Nc2ccc(Cl)c(Cl)c2)nc2ccccc12` [SJ000201376-1], 69.9 µM. Still for that read-out and setting: the value for `Clc1ccc2c(NCCCNCc3ccc4ccccc4c3)ccnc2c1` [SJ000523065-1] was 69.9 µM; that for `O=C(Cn1cnc2cc(-c3ccc(Cl)cc3)sc2c1=O)NCc1ccc(F)cc1` [SJ000444020-1] was 69.9 µM; that for `COCCn1c(-c2cccc(C)c2)nc2c1c(=O)[nH]c(=O)n2CC(C)C` [SJ000426389-1] was 69.9 µM. As to `COc1cccc(CNCCCNc2ccnc3cc(Cc4ccc(F)cc4)ccc23)c1O` [SJ000311243-1], the IC50 is 43.6 µM.

As for `CCn1c2ccccc2c2cc(CN3CCN(S(C)(=O)=O)CC3)ccc21` [SJ000168261-1], the IC50 came out at 69.9 µM. On the same count and under the same terms, the value for `c1ccc(CCc2ccc3c(NCCCNCc4cccc5c4OCO5)ccnc3c2)cc1` [SJ000311257-1] was 62.3 µM; that for `CCCn1c(-c2ccc(Cl)cc2)nc2c1c(=O)[nH]c(=O)n2Cc1ccccc1` [SJ000375541-1] was 69.9 µM.

As to `Cc1nc2cc(-c3ccccc3)sc2c(=O)n1N` [SJ000296471-1], the IC50 came out at 69.9 µM.

As to `COCCn1c(-c2ccc(C)cc2)nc2c1c(=O)[nH]c(=O)n2CC(C)C` [SJ000421396-1], the IC50 came out at 69.9 µM. Still for that read-out and setting: the value for `CCCn1c(=O)[nH]c(=O)c2c1nc(-c1ccc(OC(F)(F)C(F)C(F)(F)F)cc1)n2CCOC` (stereo not shown) [SJ000379374-1] was 69.9 µM.

As for `CCOc1ccc(C2Nc3ccccc3C(=O)N2CCCN2CCOCC2)cc1` (stereo not shown) [SJ000803759-1], the half-maximal inhibitory concentration (IC50) came out at 67.7 µM. Same read-out and setting: the value for `COc1cccc(CNCCCNc2ccnc3cc(Oc4ccc(C(C)(C)C)cc4)ccc23)c1O` [SJ000311235-1] was 7.65 µM; that for `CC(=O)N(C1=C(Cl)C(=O)c2ccccc2C1=O)c1cccc(I)c1` [SJ000024931-1] was 69.9 µM.

Take `CC(C)(C)c1ccc(-c2ccc3c(NCCCNCc4cccc5c4OCO5)ccnc3c2)cc1` [SJ000311288-1]: the IC50 worked out at 6.87 µM. The same measure, in the same setting: the value for `FC(F)(F)c1cccc(Cc2ccc3c(NCCCNCc4cccc5c4OCO5)ccnc3c2)c1` [SJ000311300-1] was 12.8 µM; that for `O=C(CNC(=O)c1ccc2[nH]c3ccccc3c2c1)NCCO` [SJ000031064-1] was 69.9 µM. The same measure, in the same setting: under `FC(F)(F)c1ccccc1CNCCCNc1ccnc2cc(Cl)ccc12` [SJ000520908-2] stands 69.9 µM; under `CC(=O)NC1=C(N)C(=O)c2ccccc2C1=O` [SJ000053101-1], 69.9 µM; under `COc1ccc(F)cc1CNCCCNc1ccnc2cc(CCC(C)C)ccc12` [SJ000311249-1], 69.9 µM. Still for that read-out and setting: under `CCCN1C(=O)c2ccccc2NC1c1cc(Cl)c(O)c(OC)c1` (stereo not shown) [SJ000414199-1] stands 69.9 µM. `CC(C)Cc1ccc2c(NCCCNCc3cccc4c3OCO4)ccnc2c1` [SJ000311260-1]: the IC50 is 69.9 µM. The same measure, in the same setting: under `COc1ccc(CN2C(=O)c3ccccc3NC2c2ccc(F)cc2)cc1` (stereo not shown) [SJ000510740-1] stands 69.9 µM.

As to `CCn1c2ccccc2c2cc(CN3CCN(CCO)CC3)ccc21` [SJ000145592-1], the IC50 is 69.9 µM. For `COc1ccccc1CNC(=O)Cn1cnc2cc(-c3ccc(Cl)cc3)sc2c1=O` [SJ000444040-1], the IC50 worked out at 69.9 µM. On the same count and under the same terms, the value for `COc1ccc(C2Nc3ccccc3C(=O)N2Cc2ccccc2)cc1CN1C(=O)c2ccccc2C1=O` (stereo not shown) [SJ000295698-1] was 69.9 µM; that for `COC(=O)c1ccc(CNCCCNc2ccnc3cc(Cl)ccc23)cc1` [SJ000523067-1] was 69.9 µM.

As to `CCCn1c(=O)[nH]c(=O)c2c1nc(-c1cccc(C)c1)n2CCOC` [SJ000423281-1], the IC50 is 69.9 µM. Take `COc1cccc(CNCCCNc2ccnc3cc(Cc4ccccc4)ccc23)c1O` [SJ000311307-1]: the IC50 is 69.9 µM. Same read-out and setting: the value for `NC1=C(N2CCCCC2)C(=O)c2ccccc2C1=O` [SJ000294373-2] was 20.1 µM; that for `COc1ccc(C2=C(c3ccc([N+](=O)[O-])cc3)C(=O)OC2)cc1` [SJ000367280-1] was 69.9 µM. Same read-out and setting: under `COc1cc2nc(N3CCN(C(=O)C4COc5ccccc5O4)CC3)nc(N)c2cc1OC` (stereo not shown) [SJ000113084-10] stands 57.1 µM; under `COc1ccc(F)cc1CNCCCNc1ccnc2cc(Oc3ccc(F)cc3)ccc12` [SJ000311225-1], 69.9 µM; under `CCCCOc1ccc(N(C(C)=O)C2=C(Cl)C(=O)c3ccccc3C2=O)cc1` [SJ000032717-1], 8.71 µM.

On to `COc1ccc(C2Nc3ccccc3C(=O)N2Cc2ccc(C)cc2)cc1` (stereo not shown) [SJ000510743-1], for which the IC50 came to 69.9 µM.

Still in this assay, the particulars now being: Table 5, dose response TR-FRET screening of 59 quinoline compounds against MAGE-A11:PCF11; read-out: TR-FRET IC50.
For the compound `CC(C)(C)c1ccc(Oc2ccc3c(NCCCNCc4ccco4)ccnc3c2)cc1` [SJ000311234-1], the IC50 is 32.1 µM.

`c1coc(CNCCCNc2ccnc3cc(CC4CCCCC4)ccc23)c1` [SJ000311250-1]: the IC50 came out at 54.9 µM.

`FC(F)(F)c1ccc2c(NCCCNCc3cc4ccccc4s3)ccnc2c1` [SJ000521060-1]: the half-inhibitory concentration (IC50) is above 70 µM. On the same count and under the same terms, the value for `CCCCCCN(CCC)CCCNc1ccnc2cc(C(F)(F)F)ccc12` [SJ000523083-1] was above 70 µM; that for `Clc1ccc2c(NCCCN(Cc3ccccc3)Cc3c[nH]c4ccccc34)ccnc2c1` [SJ000520433-1] was above 70 µM. Same read-out and setting: under `CCCN(CCCNc1ccnc2cc(Cl)ccc12)Cc1ccc2ccccc2c1` [SJ000523040-1] stands above 70 µM.

The same assay, now with this note: Table 6, 4-aminoquinoline compounds; read-out: TR-FRET, IC50.
Regarding `FC(F)(F)c1ccc(-c2ccc3c(NCCCNCc4cccc5c4OCO5)ccnc3c2)cc1` [SJ000311280-01], the IC50 was found to be 4.07 µM.

The assay is the same for the next values; noted with them: Table 8, representative compounds; read-out: TR-FRET IC50.
As to `Nc1c2ccccc2nc2ccccc12` [SJ000285450], the IC50 is above 75.5 µM. Still for that read-out and setting: under `COc1cccc(CNCCCNc2ccnc3cc(C4=CC=CC5=CC=CC=CC54)ccc23)c1O` (stereo not shown) [SJ000311275] stands 16 µM; under `COc1cccc(CNCCCNc2ccnc3cc(Cc4ccc(F)cc4)ccc23)c1O` [SJ000311243], 43.6 µM. The same measure, in the same setting: the value for `COc1ccc(OC)c2c(O)cc(C)nc12` [SJ000284975] was above 69.9 µM; that for `CCc1c2c(nc3ccc(OC(=O)N4CCC(N5CCCCC5)CC4)cc13)-c1cc3c(c(=O)n1C2)COC(=O)[C@]3(O)CC` [SJ000312345] was above 58.7 µM.

Regarding `CCc1ccc(CNCCCNc2ccnc3cc(Cl)ccc23)cc1` [SJ000521039], the IC50 amounted to 69.9 µM. The same measure, in the same setting: the value for `CC(C)CCc1ccc2c(NCCCNCc3cccc4c3OCO4)ccnc2c1` [SJ000311248] was 27.7 µM; that for `Fc1ccc(Cc2ccc3c(NCCCNCc4cccc5c4OCO5)ccnc3c2)cc1` [SJ000311244] was 42.3 µM; that for `FC(F)(F)c1ccc(-c2ccc3c(NCCCNCc4cccc5c4OCO5)ccnc3c2)cc1` [SJ000311280-01] was 15.7 µM. Still for that read-out and setting: under `COc1ccc(F)cc1CNCCCNc1ccnc2cc(Cc3cccc(C(F)(F)F)c3)ccc12` [SJ000311301] stands 22.2 µM; under `COc1ccc(F)cc1CNCCCNc1ccnc2cc(-c3ccc(F)cc3)ccc12` [SJ000311241], 38.9 µM. Take `Fc1ccc2c(NCCCNCc3ccc(OC(F)(F)F)cc3)ccnc2c1` [SJ000834150]: the IC50 is above 67.3 µM. On to `COc1ccc(-c2ccc3c(NCCCNCc4cccc(OC)c4O)ccnc3c2)cc1` [SJ000311295], for which the IC50 stood at 69.9 µM. The same measure, in the same setting: the value for `Fc1cccc(CNCCCNc2ccnc3cc(Cl)ccc23)c1` [SJ000523061] was 69.9 µM. Still for that read-out and setting: the value for `COc1cccc(CNCCCNc2ccnc3cc(Oc4ccc(F)cc4)ccc23)c1O` [SJ000311223] was 61.9 µM.

With `COc1ccc(F)cc1CNCCCNc1ccnc2cc(CC3CCCCC3)ccc12` [SJ000311253], the IC50 amounted to 26.3 µM.

Staying with this assay, now noted: read-out: IC50 by TR-FRET for disrupting MAGE-A11:PCF11 interaction.
Regarding `FC(F)(F)c1ccc(-c2ccc3c(NCCCNCc4cccc5c4OCO5)ccnc3c2)cc1` [SJ000311280-01], the IC50 came out at 4.07 µM.
